Laboratory results from patent publication US20080004282A1, “Compositions and methods for modulating gated ion channels” (PainCeptor Pharma Corporation, priority 2006, published 2008).

Test system: chemically-induced spontaneous pain evoked by intraplantar injection of formalin
Test: Formalin test (model of acute tonic pain)
Assay type: in vivo
Details: rat; for pain intensity as evaluated by the flinching or licking behaviors: s.c. 30 min prior to formalin injection; for ED50: sc, s.c. 30 min prior to formalin, licking and biting episodes in phase IIa, read-out: ED50, effective dose where the pain score is reduced by half
From the text: Model of Acute Tonic Pain
This example describes a procedure for the in vivo assessment of the inhibitory activity of the compounds of the present invention.
A number of well-established models of pain are described in the literature and are known to the skilled in the art (see, for example, Table 1). This example describes the use of the Formalin test.
Male Sprague-Dawley rats are housed together in groups of three animals under standard conditions with unrestricted access to food and water. All experiments are conducted according to the ethical guidelines for investigations of experimental pain in conscious animals (Zimmerman, 1983)
Assessment of formalin-induced flinching behavior in normal, uninjured rats (body weight 150-180 g) is made with the use of an Automated Nociception Analyser (University of California, San Diego, USA). Briefly, this involves placing a small C-shaped metal band (10 mm wide×27 mm long) on the hindpaw of the rat to be tested. The rats (four rats are included in each testing session) are then placed in a cylindrical plexiglass observation chamber (diameter 30.5 cm and height 15 cm) for 20 min for adaptation purposes prior to being administered drug or vehicle according to the experimental paradigm being followed. […] Rats are then returned to their separate observation chambers, each of which are in turn situated upon an enclosed detection device consisting of two electromagnetic coils designed to produce an electromagnetic field in which movement of the metal band could be detected. […] A sampling interval of 1 min is used and on the basis of the resulting response patterns 5 phases of nociceptive behaviour are identified and scored: first phase (P1; 0-5 min), interphase (Int; 6-15 min), second phase (P2; […]), phase 2A (P2A; 16-40 min) and phase 2B (P2B; 41-60 min).
Nociceptive behavior is also determined manually every 5 min by measuring the amount of time spent in each of four behavioral categories: 0, treatment of the injected hindpaw is indistinguishable from that of the contralateral paw; 1, the injected paw has little or no weight placed on it; 2, the injected paw is elevated and is not in contact with any surface; 3, the injected paw is licked, bitten, or shaken. A weighted nociceptive score, ranging from 0 to 3 is calculated by multiplying the time spent in each category by the category weight, summing these products, and dividing by the total time for each 5 min block of time. […] On the basis of the resulting response patterns, […] of nociceptive behavior are identified and scored: first phase (P1; 0-5 min), interphase (Int; 6-15 min), second phase (P2; […]), phase 2A (P2A; 16-40 min) and phase 2B (P2B; 41-60 min). […]

Structure (SMILES)	pain intensity as evaluated by the flinching or licking behaviors	ED50
CCN1CCc2c(-c3ccccc3)cc(C#N)c(N)c2C1 [Compound 12, 8-Amino-2-ethyl-5-phenyl-1,2,3,4-tetrahydro-isoquinoline-7-carbonitrile]	dose-dependent reduction	4 mg/kg
CCN1CCc2c(-c3cc(Cl)ccc3OC)cc(C#N)c(N)c2C1 [Compound 44]	dose-dependent reduction	22 mg/kg
